# Assay results taken from patent publication US20220233512A1, “INHIBITING AN IMMUNE RESPONSE MEDIATED BY ONE OR MORE OF TLR2, RAGE, CCR5, CXCR4 AND CD4” (priority 2020, published 2022).
# Tests used:
# FLNA = molecular target: T1, FLNA (Mus musculus, UniProt Q8BTM8); conditions: 20-22 mg/kg in vivo; Ab42-infused, 3xTg AD and aged wild-type mice (untreated 5.3); Wang et al. 2017; cited from earlier work
# T1 construct: pI of FLNA from the brains of naïve mice; from tissue; host or cells: mouse brain (in vivo treated animals)
# mu opiate receptor (MOR) = molecular target: T2, mu opiate receptor (MOR) (Rattus norvegicus, UniProt P33535); test: MOR agonist activity using [35S]GTPgS binding assay in striatal membranes; assay type: biochemical; conditions: Series C-2 table
# T2 construct: from tissue; host or cells: striatum (membrane preparation)
# Outline: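 Rat striatal membranes incubated 5 min at 30 °C in pH 7.5 HEPES buffer with 100 mM NaCl, 1 mM MgCl2 and 0.5 nM [35S]GTPgS, then 5 min with compound. Gαo-bound [35S]GTPgS isolated by immunoprecipitation and counted by liquid scintillation.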
# T2 sequence (P33535 whole entry): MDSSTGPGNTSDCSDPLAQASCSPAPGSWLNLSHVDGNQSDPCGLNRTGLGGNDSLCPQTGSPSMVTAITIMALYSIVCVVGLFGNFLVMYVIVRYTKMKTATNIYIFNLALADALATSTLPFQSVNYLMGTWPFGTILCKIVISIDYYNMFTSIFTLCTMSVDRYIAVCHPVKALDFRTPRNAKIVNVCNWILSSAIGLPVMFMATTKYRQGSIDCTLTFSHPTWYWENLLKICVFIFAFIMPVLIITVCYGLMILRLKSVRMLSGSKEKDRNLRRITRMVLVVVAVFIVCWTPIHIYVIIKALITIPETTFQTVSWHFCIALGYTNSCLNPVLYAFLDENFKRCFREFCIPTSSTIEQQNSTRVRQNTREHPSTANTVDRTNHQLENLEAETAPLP
# T1 sequence (Q8BTM8 whole entry, the tested form may be a part): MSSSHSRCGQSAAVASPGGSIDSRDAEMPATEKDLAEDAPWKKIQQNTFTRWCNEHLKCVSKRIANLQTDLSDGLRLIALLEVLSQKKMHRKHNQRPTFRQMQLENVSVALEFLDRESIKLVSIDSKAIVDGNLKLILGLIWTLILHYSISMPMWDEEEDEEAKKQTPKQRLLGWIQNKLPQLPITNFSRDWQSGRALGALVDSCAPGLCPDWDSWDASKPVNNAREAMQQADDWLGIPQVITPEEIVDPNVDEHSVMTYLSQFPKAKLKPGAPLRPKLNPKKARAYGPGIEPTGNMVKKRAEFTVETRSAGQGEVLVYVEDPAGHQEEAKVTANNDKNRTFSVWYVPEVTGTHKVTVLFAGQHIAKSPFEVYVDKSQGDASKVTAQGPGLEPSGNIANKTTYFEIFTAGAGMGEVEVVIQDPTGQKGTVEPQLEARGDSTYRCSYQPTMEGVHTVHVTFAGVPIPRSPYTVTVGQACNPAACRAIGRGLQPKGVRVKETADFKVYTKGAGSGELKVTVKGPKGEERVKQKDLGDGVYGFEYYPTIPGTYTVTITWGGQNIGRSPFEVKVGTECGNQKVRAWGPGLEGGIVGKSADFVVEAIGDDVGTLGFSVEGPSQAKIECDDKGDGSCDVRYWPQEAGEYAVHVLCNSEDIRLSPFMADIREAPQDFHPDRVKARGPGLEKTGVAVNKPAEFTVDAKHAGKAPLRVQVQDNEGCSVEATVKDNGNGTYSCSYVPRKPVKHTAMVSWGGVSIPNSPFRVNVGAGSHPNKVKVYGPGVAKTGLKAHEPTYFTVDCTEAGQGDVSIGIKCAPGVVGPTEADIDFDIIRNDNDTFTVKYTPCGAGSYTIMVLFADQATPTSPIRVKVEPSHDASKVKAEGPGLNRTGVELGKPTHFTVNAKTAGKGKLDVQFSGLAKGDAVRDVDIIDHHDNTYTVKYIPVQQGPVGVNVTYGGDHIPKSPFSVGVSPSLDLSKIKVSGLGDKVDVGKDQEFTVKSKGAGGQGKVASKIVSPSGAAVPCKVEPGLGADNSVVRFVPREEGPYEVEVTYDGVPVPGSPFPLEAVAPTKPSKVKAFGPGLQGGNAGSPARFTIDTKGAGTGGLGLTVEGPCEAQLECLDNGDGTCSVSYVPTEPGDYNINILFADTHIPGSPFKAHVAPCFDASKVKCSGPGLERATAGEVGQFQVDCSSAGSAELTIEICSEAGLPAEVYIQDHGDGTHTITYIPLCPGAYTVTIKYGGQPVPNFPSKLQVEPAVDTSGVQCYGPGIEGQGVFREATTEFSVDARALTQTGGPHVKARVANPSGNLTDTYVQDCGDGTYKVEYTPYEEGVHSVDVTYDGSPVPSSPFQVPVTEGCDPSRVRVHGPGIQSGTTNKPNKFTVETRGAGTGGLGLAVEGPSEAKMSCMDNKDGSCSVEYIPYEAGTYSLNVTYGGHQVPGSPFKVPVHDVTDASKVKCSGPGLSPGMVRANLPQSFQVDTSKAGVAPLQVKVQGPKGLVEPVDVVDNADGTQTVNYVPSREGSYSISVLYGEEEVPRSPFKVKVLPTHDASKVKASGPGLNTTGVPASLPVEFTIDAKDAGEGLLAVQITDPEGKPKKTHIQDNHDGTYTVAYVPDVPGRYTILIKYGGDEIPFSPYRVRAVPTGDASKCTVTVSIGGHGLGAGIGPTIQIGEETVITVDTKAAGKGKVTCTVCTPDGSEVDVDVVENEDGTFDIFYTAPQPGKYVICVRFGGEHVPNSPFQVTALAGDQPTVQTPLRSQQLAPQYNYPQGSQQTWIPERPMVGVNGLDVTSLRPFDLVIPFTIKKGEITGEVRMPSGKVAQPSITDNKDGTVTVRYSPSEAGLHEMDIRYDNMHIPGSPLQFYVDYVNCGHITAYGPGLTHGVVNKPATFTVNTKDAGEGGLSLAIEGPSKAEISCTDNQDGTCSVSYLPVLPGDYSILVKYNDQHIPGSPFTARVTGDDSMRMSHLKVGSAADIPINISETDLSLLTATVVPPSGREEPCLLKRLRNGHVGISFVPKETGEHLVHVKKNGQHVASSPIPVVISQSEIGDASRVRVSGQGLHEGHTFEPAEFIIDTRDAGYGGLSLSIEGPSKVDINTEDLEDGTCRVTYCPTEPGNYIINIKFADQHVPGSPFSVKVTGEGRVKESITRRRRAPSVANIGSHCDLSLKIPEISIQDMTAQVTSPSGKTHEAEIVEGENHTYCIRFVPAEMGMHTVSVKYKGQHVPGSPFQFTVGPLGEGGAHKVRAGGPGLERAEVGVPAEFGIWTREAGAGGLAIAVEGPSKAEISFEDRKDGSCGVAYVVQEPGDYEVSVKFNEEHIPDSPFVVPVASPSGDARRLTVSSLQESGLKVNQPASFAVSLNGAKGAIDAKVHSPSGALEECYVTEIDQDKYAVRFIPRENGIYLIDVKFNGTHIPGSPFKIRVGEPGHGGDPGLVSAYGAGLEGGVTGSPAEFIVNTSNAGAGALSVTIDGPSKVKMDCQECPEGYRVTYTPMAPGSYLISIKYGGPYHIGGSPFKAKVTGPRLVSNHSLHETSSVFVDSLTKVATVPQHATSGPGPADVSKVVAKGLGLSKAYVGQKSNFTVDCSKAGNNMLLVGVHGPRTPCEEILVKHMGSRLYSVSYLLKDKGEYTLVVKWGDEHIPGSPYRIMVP
compound,measurement,setting,value
CN1CCC2(CC1)NCC(=O)N2Cc1ccccc1 [Compound C0105M],pI of FLNA from brain after treatment,FLNA,5.9
same,MOR agonist activity ([35S]GTPgS binding to Gao),mu opiate receptor (MOR); 0.1 μM compound as agonist,198.1%
same,MOR agonist activity ([35S]GTPgS binding to Gao),mu opiate receptor (MOR); 1 μM + BFNA,73.1%
same,MOR agonist activity ([35S]GTPgS binding to Gao),mu opiate receptor (MOR); 1 μM compound as agonist,220.3%
